Experimental data from PubChem BioAssay AID2060907 (Molecular Pharmacology Branch, DTP, NCI, 2025).
Blank lines part the entries; values can stand above or below the compound they belong to.

Test system: 388556-164-R-J1-PDC complex spheroid viability
Assay: Anticancer human tumor 388556-164-R-J1-PDC patient-derived colon adenocarcinoma cell line growth inhibition [RAS]
Conditions: for IC50: curve of first compound; for viability, T/C: stronger effect = lower value
Method in brief: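 Agents were tested in combination matrices in half-log decrements from a top concentration at or near clinical Cmax (10 microM if undetermined). Targets were multi-cell spheroids of tumour lines plus HUVEC and MSC stromal cells.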

[1] = second compound 0.000949 µM, first compound 0.00316 µM
[2] = second compound 0.000949 µM, first compound 0.01 µM
[3] = second compound 0.000949 µM, first compound 0.0316 µM
[4] = second compound 0.000949 µM, first compound 0.1 µM
[5] = second compound 0.003 µM, first compound 0.00316 µM
[6] = second compound 0.003 µM, first compound 0.01 µM
[7] = second compound 0.003 µM, first compound 0.0316 µM
[8] = second compound 0.003 µM, first compound 0.1 µM
[9] = second compound 0.00949 µM, first compound 0.00316 µM
[10] = second compound 0.00949 µM, first compound 0.01 µM
[11] = second compound 0.00949 µM, first compound 0.0316 µM
[12] = second compound 0.00949 µM, first compound 0.1 µM
[13] = second compound 0.03 µM, first compound 0.00316 µM
[14] = second compound 0.03 µM, first compound 0.01 µM
[15] = second compound 0.03 µM, first compound 0.0316 µM
[16] = second compound 0.03 µM, first compound 0.1 µM
[17] = second compound 0.0949 µM, first compound 0.00316 µM
[18] = second compound 0.0949 µM, first compound 0.01 µM
[19] = second compound 0.0949 µM, first compound 0.0316 µM
[20] = second compound 0.0949 µM, first compound 0.1 µM
[21] = second compound 0.3 µM, first compound 0.00316 µM
[22] = second compound 0.3 µM, first compound 0.01 µM
[23] = second compound 0.3 µM, first compound 0.0316 µM
[24] = second compound 0.3 µM, first compound 0.1 µM
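Note: spheroids exposed to compound for 7 days before readout.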
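Throughout, for viability, T/C: 100% = DMSO vehicle control luminescence.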

IC50 (second compound 0.00316 µM): > 10000 nM
IC50 (second compound 0.01 µM): > 10000 nM
IC50 (second compound 0.0316 µM): > 10000 nM
IC50 (second compound 0.1 µM): > 10000 nM
IC50 (second compound 0.316 µM): > 10000 nM
IC50 (second compound 1 µM): > 10000 nM
Structure (SMILES): CC(Nc1ccc2c(c1)OCCn1cc(N3C(=O)OCC3C(F)F)nc1-2)C(N)=O (stereo unspecified) + C=CC(=O)N1CCN(c2nc(OCC3CCCN3C)nc3c(F)c(-c4nc(N)cc(C)c4C(F)(F)F)c(Cl)cc23)C(C)C1
viability, T/C (second compound 0.00316 µM, first compound 0.0316 µM): 108%
viability, T/C (second compound 0.00316 µM, first compound 0.1 µM): 96.9%
viability, T/C (second compound 0.00316 µM, first compound 0.316 µM): 88.6%
viability, T/C (second compound 0.00316 µM, first compound 1 µM): 84.2%
viability, T/C (second compound 0.00316 µM, first compound 3.16 µM): 69.8%
viability, T/C (second compound 0.00316 µM, first compound 10 µM): 71.7%
viability, T/C (second compound 0.01 µM, first compound 0.0316 µM): 103%
viability, T/C (second compound 0.01 µM, first compound 0.1 µM): 94.4%
viability, T/C (second compound 0.01 µM, first compound 0.316 µM): 85%
viability, T/C (second compound 0.01 µM, first compound 1 µM): 77.1%
viability, T/C (second compound 0.01 µM, first compound 3.16 µM): 74%
viability, T/C (second compound 0.01 µM, first compound 10 µM): 63.3%
viability, T/C (second compound 0.0316 µM, first compound 0.0316 µM): 109%
viability, T/C (second compound 0.0316 µM, first compound 0.1 µM): 98.9%
viability, T/C (second compound 0.0316 µM, first compound 0.316 µM): 92.1%
viability, T/C (second compound 0.0316 µM, first compound 1 µM): 76%
viability, T/C (second compound 0.0316 µM, first compound 3.16 µM): 81.5%
viability, T/C (second compound 0.0316 µM, first compound 10 µM): 65.5%
viability, T/C (second compound 0.1 µM, first compound 0.0316 µM): 110%
viability, T/C (second compound 0.1 µM, first compound 0.1 µM): 88%
viability, T/C (second compound 0.1 µM, first compound 0.316 µM): 83%
viability, T/C (second compound 0.1 µM, first compound 1 µM): 77.2%
viability, T/C (second compound 0.1 µM, first compound 3.16 µM): 74.8%
viability, T/C (second compound 0.1 µM, first compound 10 µM): 68.1%
viability, T/C (second compound 0.316 µM, first compound 0.0316 µM): 105%
viability, T/C (second compound 0.316 µM, first compound 0.1 µM): 114%
viability, T/C (second compound 0.316 µM, first compound 0.316 µM): 85.4%
viability, T/C (second compound 0.316 µM, first compound 1 µM): 77.8%
viability, T/C (second compound 0.316 µM, first compound 3.16 µM): 69.9%
viability, T/C (second compound 0.316 µM, first compound 10 µM): 64.4%
viability, T/C (second compound 1 µM, first compound 0.0316 µM): 99.4%
viability, T/C (second compound 1 µM, first compound 0.1 µM): 88.7%
viability, T/C (second compound 1 µM, first compound 0.316 µM): 84.1%
viability, T/C (second compound 1 µM, first compound 1 µM): 84.1%
viability, T/C (second compound 1 µM, first compound 3.16 µM): 75.3%
viability, T/C (second compound 1 µM, first compound 10 µM): 65.7%

IC50 (second compound 0.000949 µM): 43.9 nM
IC50 (second compound 0.003 µM): 35.5 nM
IC50 (second compound 0.00949 µM): 16.2 nM
IC50 (second compound 0.03 µM): 5.2 nM
IC50 (second compound 0.0949 µM): < 0.316 nM
IC50 (second compound 0.3 µM): < 0.316 nM
Structure (SMILES): CC(C)n1nc(-c2ccc3oc(N)nc3c2)c2c(N)ncnc21 + CCn1c(-c2cc(N3CCN(C)CC3)cnc2C(C)OC)c2c3cc(ccc31)-c1csc(n1)CC(NC(=O)C1CC1C)C(=O)N1CCCC(N1)C(=O)OCC(C)(C)C2
viability, T/C (second compound 0.000949 µM, first compound 0.000316 µM): 107%
viability, T/C (second compound 0.000949 µM, first compound 0.001 µM): 94.8%
viability, T/C [1]: 73.7%
viability, T/C [2]: 71.5%
viability, T/C [3]: 56.4%
viability, T/C [4]: 38%
viability, T/C (second compound 0.003 µM, first compound 0.000316 µM): 88.3%
viability, T/C (second compound 0.003 µM, first compound 0.001 µM): 80.4%
viability, T/C [5]: 72.2%
viability, T/C [6]: 68.1%
viability, T/C [7]: 50.8%
viability, T/C [8]: 34.9%
viability, T/C (second compound 0.00949 µM, first compound 0.000316 µM): 82.4%
viability, T/C (second compound 0.00949 µM, first compound 0.001 µM): 78.9%
viability, T/C [9]: 59.4%
viability, T/C [10]: 56.5%
viability, T/C [11]: 47.1%
viability, T/C [12]: 27.2%
viability, T/C (second compound 0.03 µM, first compound 0.000316 µM): 60.6%
viability, T/C (second compound 0.03 µM, first compound 0.001 µM): 55.1%
viability, T/C [13]: 62.5%
viability, T/C [14]: 37.6%
viability, T/C [15]: 34.4%
viability, T/C [16]: 21.5%
viability, T/C (second compound 0.0949 µM, first compound 0.000316 µM): 46.3%
viability, T/C (second compound 0.0949 µM, first compound 0.001 µM): 42.1%
viability, T/C [17]: 39.1%
viability, T/C [18]: 34.4%
viability, T/C [19]: 27.9%
viability, T/C [20]: 18.2%
viability, T/C (second compound 0.3 µM, first compound 0.000316 µM): 30.6%
viability, T/C (second compound 0.3 µM, first compound 0.001 µM): 32.6%
viability, T/C [21]: 27.9%
viability, T/C [22]: 23.5%
viability, T/C [23]: 20.9%
viability, T/C [24]: 17.1%

IC50 (second compound 0.000949 µM): > 1000 nM
IC50 (second compound 0.003 µM): > 1000 nM
IC50 (second compound 0.00949 µM): > 1000 nM
IC50 (second compound 0.03 µM): 90.2 nM
IC50 (second compound 0.0949 µM): < 3.16 nM
IC50 (second compound 0.3 µM): < 3.16 nM
Structure (SMILES): Nc1ccn(C2OC(CO)C(O)C2(F)F)c(=O)n1 (stereo unspecified) + CCn1c(-c2cc(N3CCN(C)CC3)cnc2C(C)OC)c2c3cc(ccc31)-c1csc(n1)CC(NC(=O)C1CC1C)C(=O)N1CCCC(N1)C(=O)OCC(C)(C)C2
viability, T/C [1]: 88.9%
viability, T/C [2]: 93.5%
viability, T/C [3]: 76.6%
viability, T/C [4]: 73.6%
viability, T/C (second compound 0.000949 µM, first compound 0.316 µM): 67.1%
viability, T/C (second compound 0.000949 µM, first compound 1 µM): 71.1%
viability, T/C [5]: 101%
viability, T/C [6]: 84%
viability, T/C [7]: 70%
viability, T/C [8]: 65%
viability, T/C (second compound 0.003 µM, first compound 0.316 µM): 65.3%
viability, T/C (second compound 0.003 µM, first compound 1 µM): 61.8%
viability, T/C [9]: 80.1%
viability, T/C [10]: 62.9%
viability, T/C [11]: 60.7%
viability, T/C [12]: 57.8%
viability, T/C (second compound 0.00949 µM, first compound 0.316 µM): 56.9%
viability, T/C (second compound 0.00949 µM, first compound 1 µM): 52.7%
viability, T/C [13]: 72%
viability, T/C [14]: 53.4%
viability, T/C [15]: 56.5%
viability, T/C [16]: 47.1%
viability, T/C (second compound 0.03 µM, first compound 0.316 µM): 52.3%
viability, T/C (second compound 0.03 µM, first compound 1 µM): 46.1%
viability, T/C [17]: 42.1%
viability, T/C [18]: 46.2%
viability, T/C [19]: 40.6%
viability, T/C [20]: 38.6%
viability, T/C (second compound 0.0949 µM, first compound 0.316 µM): 40.6%
viability, T/C (second compound 0.0949 µM, first compound 1 µM): 36.4%
viability, T/C [21]: 33.9%
viability, T/C [22]: 35%
viability, T/C [23]: 32.5%
viability, T/C [24]: 30.1%
viability, T/C (second compound 0.3 µM, first compound 0.316 µM): 31.4%
viability, T/C (second compound 0.3 µM, first compound 1 µM): 28.8%
